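Interpolation was linear, between the two tested concentrations surrounding the appropriate level; five concentrations were tested over 48 hours in 96-well plates. GI50 = concentration required for 50% inhibition of growth.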 Activity calls are given as the source filed them. Cut-off read from the data, not from the text of the source: active = GI50 up to about 1.1 µM and inactive = higher.
Assays:
Assay in all cases: NCI-60 cell line screen, 48 h
COLO 205 = system: COLO 205
KM-20L2 = system: KM-20L2
NCI-H23 = system: NCI-H23
SK-OV-3 = system: SK-OV-3
OVCAR-3 = system: OVCAR-3
SK-MEL-28 = system: SK-MEL-28
KM12 = system: KM12
RPMI-8226 = system: RPMI-8226
SN12C = system: SN12C
A498 = system: A498
NCI-H460 = system: NCI-H460
Malme-3M = system: Malme-3M
CAKI-1 = system: CAKI-1
U-251 = system: U-251
SF-539 = system: SF-539
UACC-257 = system: UACC-257
HCC 2998 = system: HCC 2998
UO-31 = system: UO-31
CCRF-CEM = system: CCRF-CEM
UACC-62 = system: UACC-62
OVCAR-8 = system: OVCAR-8
HOP-62 = system: HOP-62
HCT-15 = system: HCT-15
SK-MEL-5 = system: SK-MEL-5
HT-29 = system: HT-29
K562 = system: K562
A549 = system: A549
OVCAR-4 = system: OVCAR-4
M19-MEL = system: M19-MEL
OVCAR-5 = system: OVCAR-5
SNB-75 = system: SNB-75
HOP-18 = system: HOP-18
NCI-H226 = system: NCI-H226
TK-10 = system: TK-10
IGROV-1 = system: IGROV-1
786-0 = system: 786-0
HCT-116 = system: HCT-116
LOX IMVI = system: LOX IMVI
HOP-92 = system: HOP-92
SF-295 = system: SF-295
SF-268 = system: SF-268
SNB-78 = system: SNB-78
EKVX = system: EKVX
DMS-273 = system: DMS-273
SK-MEL-2 = system: SK-MEL-2
RXF 631 = system: RXF 631
MOLT-4 = system: MOLT-4
M14 = system: M14
XF498 = system: XF498
DMS-114 = system: DMS-114
SNB-19 = system: SNB-19
SW-620 = system: SW-620
ACHN = system: ACHN

Measured: GI50

O=C1Cc2ccccc2N1/N=C\c1ccc(O)cc1
91 µM: HCT-15
inactive: COLO 205 > 100 µM | KM-20L2 > 100 µM | NCI-H23 71.1 µM | SK-OV-3 > 100 µM | OVCAR-3 > 100 µM | SK-MEL-28 > 100 µM | KM12 > 100 µM | RPMI-8226 58.1 µM | SN12C > 100 µM | A498 > 100 µM | NCI-H460 > 100 µM | Malme-3M > 100 µM | CAKI-1 > 100 µM | U-251 > 100 µM | SF-539 95.7 µM | UACC-257 47 µM | HCC 2998 > 100 µM | UO-31 45.1 µM | CCRF-CEM 11.5 µM | UACC-62 > 100 µM | OVCAR-8 > 100 µM | HOP-62 49.7 µM | SK-MEL-5 44.1 µM | HT-29 > 100 µM | K562 61.4 µM | A549 64.9 µM | OVCAR-4 > 100 µM | M19-MEL > 100 µM | OVCAR-5 > 100 µM | SNB-75 18.1 µM | HOP-18 > 100 µM | NCI-H226 > 100 µM | TK-10 > 100 µM | IGROV-1 > 100 µM | 786-0 > 100 µM | HCT-116 > 100 µM | LOX IMVI > 100 µM | HOP-92 > 100 µM | SF-295 77.4 µM | SF-268 50.6 µM | SNB-78 > 100 µM | EKVX 82.2 µM | DMS-273 > 100 µM | SK-MEL-2 > 100 µM | RXF 631 > 100 µM | MOLT-4 13.4 µM | M14 > 100 µM | XF498 > 100 µM | DMS-114 21.8 µM | SNB-19 > 100 µM | SW-620 > 100 µM | ACHN 53.7 µM

Reference: ChEMBL document CHEMBL1201862, “PubChem BioAssay data set” (2004)
